Laboratory results taken from the NIST ThermoML archive (doi:10.1016/j.fluid.2013.09.028).
Numbers after ± are expanded uncertainties. Values belong to the compound of their own block, whether it stands above or below them.

Experiment: refractive index (Na D-line) (dimensionless); wn = mass fraction of the nth substance listed
Settings: 298.15 K, 101 kPa, Liquid, Standard Abbe refractometry

refractive index (w1 = 0.0958): 1.3462 ± 0.0005 | refractive index (w1 = 0.0961): 1.3462 ± 0.0005
SMILES: CN1CCCC1=O [N-methylpyrrolidone] + O

refractive index (w1 = 0.0473): 1.3425 ± 0.0005 | refractive index (w1 = 0.0477): 1.3404 ± 0.0005
SMILES: CC#N [acetonitrile] + O

refractive index (w1 = 0.0475): 1.3401 ± 0.0005 | refractive index (w1 = 0.0968): 1.3378 ± 0.0005
SMILES: O=C([O-])[O-].[K+].[K+] [potassium carbonate] + O

refractive index (w1 = 0.0473): 1.3426 ± 0.0005 | refractive index (w1 = 0.097): 1.3378 ± 0.0005
SMILES: O=C([O-])[O-].[Na+].[Na+] [sodium carbonate] + O
